Results reported in patent US8716293B2, “Macrocyclic integrase inhibitors” (Janssen R&D Ireland, priority 2010, dated 2014).
pEC50: −log10 of the molar value.

Tests used:
[1] = tested on: HIV-1 SDM strain G140S-Q148H; assay: cell-based HIV-1 replication assay in MT4-LTR-EGFP cells, G140S-Q148H mutant; details: fold change in activity against G140S-Q148H mutant compared to wild type HIV
Description: (§1) MT4-LTR-enhanced green fluorescent protein (EGFP) cells were obtained by transfecting MT4 cells with a selectable construct encompassing the coding sequences for the HIV LTR as a promoter for the expression of EGFP and subsequent selection of permanently transfected cells. MT4-cytomegalovirus (CMV)-EGFP cells were obtained by selection for permanently transformed MT4 cells with a CMV-EGFP reporter gene. Cell lines were maintained in RPMI 1640 medium supplemented with 10% heat-inactivated fetal calf serum, 2 mM L-glutamine, 0.1% NaHCO3, and antibiotics (0.02% gentamicin and 0.8% G418) and incubated in a humidified incubator with a 5% CO2 atmosphere at 37° C.
(§2) N155H and Q148R mutant Integrase coding sequences were constructed in the pUC19-5′HXB2D vector (XbaI-SalI fragment of pHXB2D), containing the HIV-1 clone HXB2D IN coding sequence, by using a QuikChange site-directed mutagenesis kit (Stratagene, La Jolla, Calif.) and HPLC-purified primers (Genset Oligos, La Jolla, Calif.). Altered plasmid sequences were confirmed by dideoxyribose sequencing. For generation of site-directed mutant (SDM) virus stocks, MT4 cells were subcultured at a density of 250,000 cells/ml on the day before transfection. Cells were pelleted and resuspended in phosphate-buffered saline at a concentration of 3.1×10^6 cells/ml. A 0.8-ml portion ([…]) was used for each transfection. Transfections were performed with a Bio-Rad Gene Pulser (Bio-Rad, Hercules, Calif.) with 0.4-cm electrode cuvettes (Bio-Rad). Cells were electroporated with 10 μg of SalI-linearized pUC19-3′HXB2D (SalI-XbaI fragment of pHXB2D) and 5 μg of SalI-digested SDM at 250 μF and 300 V, followed by a 30-min incubation at room temperature. Ten ml of fresh culture medium was then added to the suspension of transfected cells, and incubation was performed at 37° C. in a humidified atmosphere with 5% CO2. Cell cultures were monitored for the appearance of cytopathic effect (CPE).
(§3) The inhibitory antiviral activity of different compounds was determined in a cell-based HIV-1 replication assay. MT4-LTR-EGFP cells (150,000 cells/ml) were infected with HIV-1 (IIIB or SDM strains Q148R, N155H, or G140S-Q148H; multiplicity of infection [MOI] of 0.0025) in the presence or absence of inhibitor. After 3 days of incubation, the inhibition of HIV replication was quantified by measuring EGFP fluorescence, and expressed as the compound concentration required for 50% inhibition of HIV-1 replication in cell culture (EC50).

HIV-1 LAI (IIIB) = assay: antiviral assay in the presence of 50% human serum; type: cell-based; details: MT-4-LTR-EGFP cells, 4 days, resazurin cell viability
Method: For the antiviral assay in the presence of 50% human serum, MT-4-LTR-EGFP cells were infected with HIV-1 LAI (IIIB) at a MOI of 0.001 to 0.01 CCID50/cell in RPMI1640 medium. Following 1 h of incubation, cells were washed and plated into a 96-well plate containing serial dilutions of test compound in the presence of 10% fetal calf serum or 50% human serum. After 4 days of incubation, the EC50 in the presence of 50% human serum (EC50/HS) was determined by a cell viability assay using resazurin (as described by Fields, R. D., and M. V. Lancaster (1993) Am. Biotechnol. Lab. 11:48-50).

HIV-1 SDM strain Q148R = assay: cell-based HIV-1 replication assay in MT4-LTR-EGFP cells, Q148R mutant; details: fold change in activity against Q148R mutant compared to wild type HIV
Description: as §1, §2, §3

HIV-1 SDM strain N155H = assay: cell-based HIV-1 replication assay in MT4-LTR-EGFP cells, N155H mutant; details: fold change in activity against N155H mutant compared to wild type HIV
Description: as §1, §2, §3

[2] = tested on: cryopreserved hepatocytes from Sprague Dawley rats; assay: metabolic stability in rat hepatocytes; type: in vitro ADME; details: 1 μM, percentage turnover; for Rat (% TO) 15 min: 15 min incubation; for Rat (% TO) 60 min: 60 min incubation
Method: (§4) For determining in vitro metabolic stability, cryopreserved hepatocytes from Sprague Dawley rats and of human subjects (pool of male and female) were obtained from an external supplier (Cellz Direct Inc., Paisly, UK). Tested compounds were dissolved in DMSO and this stock solution was used to spike rat and human hepatocyte cell cultures (10^6 cells/ml) at a final concentration of 1 μM (final percentage of DMSO was 0.02% (v/v)). Incubations were performed for up to 60 min at approximately 37° C. and terminated by the addition of two volumes of DMSO. Samples were then centrifuged and aliquots of the supernatant analyzed using liquid chromatography (LC) with electrospray mass spectrometric detection (MS/MS) to monitor the disappearance of parent compound by single reaction monitoring (SRM) and reverse-phase chromotatography with a gradient of acetonitrile and water containing 0.1% (v/v) formic acid. Based on peak area, the percentage of parent compound remaining after 15 and 60 min incubation was calculated and the results, expressed as percentage turnover (TO) relative to time zero controls.

HIV-1 (IIIB) = assay: cell-based HIV-1 replication assay in MT4-LTR-EGFP cells, wild type; details: Human immunodeficiency virus 1, 72 h, 3 days, EGFP fluorescence
Description: as §1
as §3, with “(EC50). The antiviral activities of the different compounds are reported in Table 4 and expressed as EC50 for the inhibition of wild type HIV (IIIB EC50) and as fold change in activity against the mutant strains (FC-Q148R, FC-N155H, FC-G140S-Q148H) compared to the activity against wild type HIV.” for “(EC50).”

[3] = tested on: cryopreserved hepatocytes of human subjects; assay: metabolic stability in human hepatocytes; type: in vitro ADME; details: 1 μM, percentage turnover; for Human (% TO) 15 min: 15 min incubation; for Human (% TO) 60 min: 60 min incubation
Method: as §4

[4] = pharmacokinetic evaluation in the rat; type: in vivo, male Sprague-Dawley rats; details: intravenous bolus 2 mg/kg; for clearance / half-life / Vd: male, Sprague-Dawley, plasma, iv; for clearance / CLp: plasma clearance; for clearance: read-out: CLp; for half-life / t1/2: terminal phase elimination half-life; for Vd / Vss: volume of distribution at steady-state; for Vd: read-out: Vss
Method: For determining the pharmacokinetic properties in rat, each HIV integrase inhibitor was dissolved in PEG400/normal saline (70:30 (v/v)) at a nominal concentration of 1 mg/ml and administered (2 ml/kg) to male Sprague-Dawley rats (n=3 per test compound) as an intravenous bolus via a saphenous vein at a dose level of 2 mg/kg. […] Plasma was obtained by centrifugation and stored at −20° C. prior to analysis. Analysis was performed using liquid chromatography (LC) with tandem mass spectrometric detection (MS/MS) in positive ion mode. Each HIV integrase inhibitor was eluted from a reversed-phase column with a gradient of acetonitrile and water containing 0.1% (v/v) formic acid. At the time of analysis plasma samples (50 p. 1) were thawed and […] with 200 μl of acetonitrile containing 0.1% (v/v) formic acid and centrifuged. Aliquots of the supernatant (100 μl) were diluted with 200 μl of water containing 25% (v/v) methanol and 0.1% (v/v) formic acid and injected via an electrospray interface directly into the Mass Spectrometer. Calibration standards and quality controls were prepared in rat plasma at the same time as the samples and analyzed before and after the samples containing HIV integrase inhibitor. Non-compartmental pharmacokinetic analysis of the plasma concentration-time curves was performed using WinNonLin software to provide estimates of the plasma clearance (CLp), volume of distribution at steady-state (Vss) and terminal phase elimination half-life (t1/2).

[5] = Human immunodeficiency virus 1, IIIB, 96 h

Row | SMILES | melting point | FC-G140S-Q148H [1] | pEC50 (HIV-1 LAI (IIIB); [5]) | FC-Q148R (HIV-1 SDM strain Q148R) | FC-N155H (HIV-1 SDM strain N155H) | Rat (% TO) 15 min [2] | Rat (% TO) 60 min [2] | pEC50 (HIV-1 (IIIB)) | Human (% TO) 15 min [3] | Human (% TO) 60 min [3] | clearance ([4]; 2 mg/kg) | half-life ([4]; 2 mg/kg) | Vd ([4]; 2 mg/kg) | CLp ([4]; 2 mg/kg) | t1/2 ([4]; 2 mg/kg) | pEC50 (HIV-1 LAI (IIIB)) | CLp [4] | t1/2 [4] | Vss [4]
1 | CCN1C[C@H](C)n2c(c(O)c3c(=O)n4nc(c32)N(C)S(=O)(=O)CCCCOc2cc(F)ccc2C4)C1=O [Compound 1] | 298.6 to 300.6 °C | 2.6 | 8.52 | 0.7 | 3.2 | 30 % TO | 42 % TO | 9.04 | 16 % TO | 31 % TO | 8 mL/min/kg | 288 min | 0.8 L/kg |  |  |  |  |  | 
2 | CCN1C[C@H](C)n2c(c(O)c3c(=O)n4nc(c32)C(=O)NCCCCCOc2cc(F)ccc2C4)C1=O [Compound 3] | 128.21 °C | 8.1 | 7.89 | 0.9 | 3.9 |  |  | 8.63 |  |  | 6 mL/min/kg | 264 min |  | 8 mL/min/kg | 7.8 h |  |  |  | 
3 | CCN1C[C@H](C)n2c(c(O)c3c(=O)n4nc(c32)C(=O)NCCCCCOc2cc(F)c(F)cc2C4)C1=O [Compound 4] | 127.49 to 128.63 °C | 10.9 | 8.00 | 1.2 | 6.1 |  |  | 8.58 |  |  |  |  |  |  |  |  |  |  | 
4 | CCN1C[C@H](C)n2c(c(O)c3c(=O)n4nc(c32)N2CCN(CC2)C(=O)CCCOc2cc(F)ccc2C4)C1=O [Compound 44] |  | 1.3 |  | 0.7 | 3.9 | 48 % TO | 70 % TO |  | 20 % TO | 43 % TO |  |  |  |  |  | 8.22 | 16 mL/min/kg | 5.2 h | 1.8 L/kg
5 | CCN1C[C@H](C)n2c(c(O)c3c(=O)n4nc(c32)N(C)S(=O)(=O)CCCCOCc2cc(F)ccc2C4)C1=O [Compound 48] |  | 1.3 |  | 0.5 | 4.7 | 65 % TO | 86 % TO |  | 38 % TO | 72 % TO |  |  |  |  |  | 8.40 | 20 mL/min/kg | 1.4 h | 0.7 L/kg
6 | CCN1C[C@H](C)n2c(c(O)c3c(=O)n(Cc4ccc(F)c(Cl)c4)nc(C(=O)NC)c32)C1=O [Compound 52r, reference compound] |  | 56.9 | 7.54 | 1.2 | 6.8 | 38 % TO | 76 % TO | 8.47 | 25 % TO | 44 % TO | 5 mL/min/kg | 96 min | 0.2 L/kg |  |  |  |  |  | 
7 | CCN1C[C@H](C)n2c(c(O)c3c(=O)n(Cc4ccc(F)cc4)nc(N(C)S(C)(=O)=O)c32)C1=O [Compound 53r, reference compound] |  | 2.0 | 8.52 | 0.4 | 4.9 | 60 % TO | 89 % TO | 9.00 | 41 % TO | 84 % TO | 75 mL/min/kg | 102 min | 2.9 L/kg |  |  |  |  |  | 
8 | CCN1C[C@@H](C)n2c(c(O)c3c(=O)n(Cc4ccc(F)c(Cl)c4)nc(N4CCN(C)S4(=O)=O)c32)C1=O [Compound 54r, reference compound] |  | 3.1 | 8.15 | 0.4 | 4.4 | 32 % TO | 46 % TO | 8.69 | 16 % TO | 23 % TO | 40 mL/min/kg | 90 min | 2.2 L/kg |  |  |  |  |  | 
